Data set [1] has as its system Rattus norvegicus. Put plainly: Anti-inflammatory activity against carrageenan-induced hind paw edema in rat at 20 mg/kg, PO measured after 5 hrs relative to control. Type of data set: functional.
For a further data set, the system named is RAW264.7. Description: Anti-inflammatory activity against LPS induced mouse RAW264.7 cells assessed as suppression of TNFalpha cytokine level at 20 uM incubated for 24 hrs by ELISA assay relative to control. Type of data set: functional.
The next data set is filed under the species Homo sapiens. Put plainly: Inhibition of proteinase (unknown origin) at 100 ug/ml using casein as substrate preincubated for 5 mins followed by addition of substrate for 20 mins relative to control. The note with it: dose 100.0 µg/ml.
Another data set deals with Erythrocyte. Description: Anti-inflammatory against heat induced human red blood cells assessed as inhibition of heat induced hemolysis by measuring membrane stabilization for at 100 ug/ml incubated for 30 mins relative to control. In kind it is functional. As to conditions: 0.5 h.
Data set [2] deals with Rattus norvegicus. Put plainly: Anti-inflammatory activity against Cotton pellets induced granuloma in Albino rat at 20 mg/kg, po administered for 7 days measured on day 8 by measuring pellet weight relative to control. In kind it is functional. As to conditions: time 8 day.
Data set [3] deals with Rattus norvegicus. Put plainly: Acute anti-inflammatory activity against carrageenan induced paw edema in Albino rat at 20 mg/kg, po pretreated for 30 mins followed by carrageenan addition measured every hour for 3 hrs by plethysmography method relative to control. In kind it is functional. As to conditions: time 3.5 hrs. Background: In the carrageenan paw model, swelling and tenderness develop within hours.

The test system of data set [4] is Rattus norvegicus. Description: Antiulcer activity against ulceration induced albino Wistar rat assessed as ulcerogenic index pretreated daily at 25 mg/kg for 4 days followed by 24 hrs fasting prior to pylorus ligation measured after 4 hrs. The note with it: time 124 hrs. Type of data set: functional.
Data set [5] relates to Rattus norvegicus. Description: Anti-inflammatory activity against carrageenan induced paw edema in rat assessed as inhibition of paw edema at 12.5 mg/kg,PO pretreated for 1 hrs followed by carrageenan addition for 4 hrs by plethysmographic analysis relative to control. The note with it: time 5 hrs. Type of data set: functional.
The nature of data set [6]: Acute toxicity in PO dosed Wistar albino rat measured for 14 days. As to conditions: in vivo, time 14 day. Type of data set: organism-based.
For data set [7], the system named is Rattus norvegicus. Description: Anti-inflammatory activity against carrageenan-induced paw edema in Wistar albino rat at 10 mg/kg, po pretreated for 1 hr followed by carrageenan addition measured after 6 hrs by plethysmometer relative to control. Type of data set: functional. As to conditions: time 7 hrs.
In data set [8] the test system is Rattus norvegicus. Put plainly: Anti-inflammatory activity against carrageenan-induced paw edema in PO dosed Wistar albino rat assessed as edema inhibition percentage measured for 2 hrs relative to control. In kind it is functional.
The subject of data set [9] is Rattus norvegicus. Description: Anti-inflammatory activity against carrageenan-induced paw edema in PO dosed Wistar albino rat measured after 2 hrs. Type of data set: functional.
In data set [10] the test system is Rattus norvegicus. Description: Anti-inflammatory activity against carrageenan-induced paw edema in po dosed Wistar rat pretreated for 1 hrs followed by carrageenan addition measured after 3 hrs. In kind it is functional. As to conditions: time 4 hrs.
The subject of data set [11] is Rattus norvegicus. Description: Anti-inflammatory activity against carrageenan-induced paw oedema in 12 hrs fasted Albino rat assessed as inhibition of oedema formation administered intraperitoneally measured after 3 hrs relative to control. Type of data set: functional. As to conditions: route ip.
A short description of data set [12]: Ulcerogenic activity in 12 hrs fasted Albino rat assessed as ulcerogenic index at […] per day, po for 3 days. Type of data set: toxicity, organism-based. As to conditions: in vivo, 72 h, time 3 day.
In data set [13] the test system is Mus musculus. Description: Analgesic activity in hot plate induced thermal pain Swiss albino mouse model assessed as change in latency at 10 mg/kg, po measured at 1 to 2 hrs relative to control. Type of data set: functional. As to conditions: time 1-2 hrs.
Data set [14] relates to Rattus norvegicus. Put plainly: Anti-inflammatory activity against carrageenan-induced paw edema in Albino rat assessed as percentage of protection at 50 mg/kg,po pretreated for 1 hrs followed by carrageenan addition measured after 4 hrs by plethysmography method relative to control. In kind it is functional. The note with it: time 5 hrs.
Data set [15] deals with Mus musculus. Description: Anti-inflammatory activity against Carrageenan-induced paw edema in Swiss albino mouse assessed as change in paw volume at 10 mg/kg, PO measured after 6 hrs by plethysmometric analysis relative to control. In kind it is functional.
For data set [16], the system named is Rattus norvegicus. Description: Anti-inflammatory activity against carrageenan-induced paw edema in Wistar albino rat model assessed as inhibition of paw edema at 20 mg/kg, PO relative to control. In kind it is functional.
Data set [17] deals with Rattus norvegicus. Put plainly: Acute ulcerogenic activity in 18 hrs fasted Wistar rat at 60 mg/kg, po treated for 6 hrs relative to control. In kind it is functional.
Data set [18] deals with Mus musculus. Description: Analgesic activity in albino […] mouse assessed as increase in reaction on paw licking at 100 mg/kg, po pretreated for 1 hrs followed by hot plate treatment measured after 90 mins by analgesiometer based analysis relative to control. The note with it: time 2.5 hrs. In kind it is functional.
Data set [19] in a line: Antioxidant activity assessed as DPPH radical scavenging activity incubated for 20 mins by UV spectrometric analysis. Type of data set: functional. (Loss of DPPH colour is used to gauge radical scavenging.)
Data set [20] deals with T1, Seed linoleate 13S-lipoxygenase-1 (Glycine max, UniProt P08170).
T1 sequence (P08170 whole entry): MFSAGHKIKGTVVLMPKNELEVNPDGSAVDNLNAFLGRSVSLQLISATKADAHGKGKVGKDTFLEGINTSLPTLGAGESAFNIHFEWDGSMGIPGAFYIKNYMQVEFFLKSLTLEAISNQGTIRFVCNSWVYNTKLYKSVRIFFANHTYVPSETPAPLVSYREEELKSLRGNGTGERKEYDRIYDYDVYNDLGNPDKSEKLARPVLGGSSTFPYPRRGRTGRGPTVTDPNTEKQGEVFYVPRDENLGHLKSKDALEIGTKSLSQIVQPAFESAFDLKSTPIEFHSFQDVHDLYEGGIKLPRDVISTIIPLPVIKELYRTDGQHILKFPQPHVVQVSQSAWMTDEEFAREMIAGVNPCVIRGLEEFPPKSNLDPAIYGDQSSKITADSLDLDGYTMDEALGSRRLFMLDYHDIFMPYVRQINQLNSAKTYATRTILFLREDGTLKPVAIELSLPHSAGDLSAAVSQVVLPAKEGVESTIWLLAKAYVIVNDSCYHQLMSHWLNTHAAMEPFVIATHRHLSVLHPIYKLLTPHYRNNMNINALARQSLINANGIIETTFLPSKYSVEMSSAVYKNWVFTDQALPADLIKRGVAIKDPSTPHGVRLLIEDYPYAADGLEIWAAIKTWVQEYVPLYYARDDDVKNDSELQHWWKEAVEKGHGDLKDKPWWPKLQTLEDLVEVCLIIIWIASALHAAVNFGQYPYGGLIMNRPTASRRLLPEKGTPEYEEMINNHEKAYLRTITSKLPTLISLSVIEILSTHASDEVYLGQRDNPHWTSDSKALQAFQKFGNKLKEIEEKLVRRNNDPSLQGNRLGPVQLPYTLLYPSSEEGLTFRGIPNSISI
Put plainly: Inhibition of soybean LOX-1 using linoleic acid as substrate measured for 3 mins.

The target in data set [21] is T2, Seed linoleate 13S-lipoxygenase-1 (Glycine max) (UniProt P08170).
T2 sequence (whole entry): T1 sequence (P08170 whole entry)
Put plainly: Binding affinity to soybean LOX-1 assessed as quenching ability by fluorescence based assay relative to control.

pIC50: −log10 of the molar value. ≈ marks a conversion by molar mass, not a printed value.

What is called inhibition in vivo is the share of the control response that was lost under treatment. One may read the inhibition as how much of the control response was suppressed. The LD50 is the dose expected to kill half of the subjects tested. By ED50 is commonly meant the dose at which the effect has come halfway, by size or by number of responders. As usually defined, the IC50 is the concentration needed to halve the response being measured. The term pIC50 denotes the negative decadic logarithm of the IC50, by convention in mol/L.

`O=C1/C(=C\c2ccc(F)cc2)C=C(c2ccc(F)cc2)N1Cc1ccccc1Cl` had an inhibition in vivo at 20 mg/kg in the data set with Rattus norvegicus [1] of 71.5%. Besides, the Activity in the data set with RAW264.7 is recorded as 60.9%. In the data set listed under Homo sapiens, `O=Cc1cc2cccc(-c3nc4ccccc4o3)c2nc1Cl` had an inhibition of 80.2%. In addition, the inhibition at 100 µg/mL with Erythrocyte is 74.3%. Turning to `CN(C)CCC(=O)Nc1ccc2oc(Cc3ccc(Cl)cc3)nc2c1`, the Activity in the data set with Rattus norvegicus [2] came to 48.4%; in the data set on Rattus norvegicus [3], 72%. As to `CCOC(=O)c1cc(N)n(C(=O)c2csc(-c3ccccc3)n2)n1`, in the data set on Rattus norvegicus [4], the Activity is recorded as 0.44. As for `O=C(CCN1CCN(c2ccc([N+](=O)[O-])cc2)CC1)Nc1ccc2oc(Cc3ccc(Cl)cc3)nc2c1`, the Activity in the data set with Rattus norvegicus [2] was determined as 44%; in the data set on Rattus norvegicus [3], 81.7%.

`Cc1ccc(N(O)/N=N/c2ccc(S(=O)(=O)Nc3nc(C)cc(C)n3)cc2)cc1`: the inhibition in vivo at 12.5 mg/kg in the data set with Rattus norvegicus [5] came to 97.1%. For the molecule `O=C(Cc1cn(-c2ccccc2)nc1O)Nc1ccccc1-c1cc(-c2ccc(Br)cc2)n(-c2ccccc2)n1`, the LD50 at 336 h in [6] was determined as 2000 mg/kg. Take `CC(C)Cc1ccc(C(C)C(=O)c2ccc(OCc3cn(Cc4ccc([N+](=O)[O-])cc4)nn3)cc2O)cc1` (centres undefined): in the data set on Rattus norvegicus [7], the inhibition in vivo at 10 mg/kg amounted to 94.2%. As to `CC1=NN(c2ccccc2C(=O)O)C(=O)/C1=N/Nc1ccc(S(N)(=O)=O)cc1`, the “inhibition (INH)” value with Rattus norvegicus [8] came out at 54.54%. The ED50 with Rattus norvegicus [9] is 44 µmol/kg. For `O=C(O)CC(O)(c1ccccc1)c1ccccc1`, the ED50 with Rattus norvegicus [10] was 15 µmol/kg. On to `O=C(Nc1nc2ccccc2s1)C(Cc1cc2ccccc2[nH]1)N(C(=O)c1ccccc1)S(=O)(=O)c1ccc([N+](=O)[O-])cc1` (centres undefined), for which the “inhibition (INH)” value in the data set on Rattus norvegicus [11] amounted to 80%. In addition, in data set [12], the Activity_index is 0.82. As for `CN1C(C(=O)Nc2ccccn2)=C(O)c2ccccc2S1(=O)=O` [PIROXICAM], the inhibition in vivo at 10 mg/kg in the data set on Mus musculus [13] amounted to 75%. With `CCc1nnc(-c2cc3cc([N+](=O)[O-])ccc3o2)o1`, the Activity with Rattus norvegicus [14] amounted to 72%. Turning to `COc1ccc(/C=C/C(=O)c2ccc(F)cc2O)cc1`, in the data set with Mus musculus [15], the Activity is recorded as 54%. For `CC(C)Cc1ccc(C(C)C(=O)O)cc1` (centres undefined) [IBUPROFEN], the inhibition in vivo at 20 mg/kg in the data set with Rattus norvegicus [16] amounted to 65.9%. Moreover, in the data set with Rattus norvegicus [17], the Activity is on record as 69.5%. For the same molecule, the inhibition in vivo at 10 mg/kg in the data set on Rattus norvegicus [7] came to 94.7%. The ED50 with Rattus norvegicus [10] was 15 µmol/kg. For `CC(C(=O)O)C(O)(c1ccccc1)c1ccccc1` (centres undefined), the 50% effective dose (ED50) in the data set on Rattus norvegicus [10] turned out to be 15 µmol/kg. Regarding `Cc1ccc(-c2nnc(CCC(=O)N/N=C3\C(=O)Nc4ccccc43)o2)cc1`, the Activity in the data set with Mus musculus [18] was found to be 83.17%. Take `COCc1nc2ccc3occc3c2o1`: the half-maximal inhibitory concentration (IC50) in data set [19] was found to be 360 µg/mL (≈ 1770 µM). In data set [20], the pIC50 is 4.18. For the same molecule, in data set [21], the Qmax worked out at 76.3%.

(Values after ChEMBL document CHEMBL5096183, “Contemporary advances of cyclic molecules proposed for inflammation” (Eur J Med Chem, 2021).)
